Laboratory results from ChEMBL document CHEMBL3885881, “DrugMatrix”.

Species on record: Rattus norvegicus
Assay: DrugMatrix - Regimen: Daily Repeat
Assay type: toxicity, organism-based, Sprague-Dawley
Design: regimen Daily Repeat, gender Male, age 6-8 weeks
Details: in vivo, po, route oral GAVAGE, vehicle .5 % CMC; for ABSOLUTE BASOPHIL / ABSOLUTE EOSINOPHIL / ABSOLUTE LYMPHOCYTE / ABSOLUTE MONOCYTE / ABSOLUTE SEGMENTED NEUTROPHIL / BASOPHIL / EOSINOPHIL / ERYTHROCYTE COUNT / HEMATOCRIT / HEMOGLOBIN / LEUKOCYTE COUNT / LYMPHOCYTE / MEAN CORPUSCULAR HEMOGLOBIN / MEAN CORPUSCULAR HEMOGLOBIN CONCENTRATION / MEAN CORPUSCULAR VOLUME / MONOCYTE / NEUTROPHIL / NUCLEATED RED BLOOD CELLS / PLATELET COUNT: tissue Blood; for ALANINE AMINOTRANSFERASE / ALBUMIN / ALKALINE PHOSPHATASE / ASPARTATE AMINOTRANSFERASE / BLOOD UREA NITROGEN / CARBON DIOXIDE / CHLORIDE / CHOLESTEROL / CREATINE PHOSPHOKINASE / CREATININE / GLUCOSE / LACTATE DEHYDROGENASE / LIPASE / PHOSPHORUS / POTASSIUM / SODIUM / TOTAL BILIRUBIN / TOTAL PROTEIN / URIC ACID: tissue Plasma
[1] = 200 mg/kg, 120 h, dose level Low, time 5 day
[2] = 2500 mg/kg, 72 h, dose level High, time 3 day
[3] = 2500 mg/kg, 120 h, dose level High, time 5 day

Structure (SMILES): CCC1=C(C)CN(C(=O)NCCc2ccc(S(=O)(=O)NC(=O)N[C@H]3CC[C@H](C)CC3)cc2)C1=O [GLIMEPIRIDE]
- ABSOLUTE BASOPHIL [1]: 0 CELLS/uL
- ABSOLUTE EOSINOPHIL [1]: 0 CELLS/uL
- ABSOLUTE LYMPHOCYTE [1]: 12890.33 CELLS/uL
- ABSOLUTE MONOCYTE [1]: 43.33 CELLS/uL
- ABSOLUTE SEGMENTED NEUTROPHIL [1]: 866.33 CELLS/uL
- BASOPHIL [1]: 0%
- EOSINOPHIL [1]: 0%
- ERYTHROCYTE COUNT [1]: 5.84 x10E6/uL
- HEMATOCRIT [1]: 36.5%
- HEMOGLOBIN [1]: 14.63 G/DL
- LEUKOCYTE COUNT [1]: 13.8 x10E3/uL
- LYMPHOCYTE [1]: 93.33%
- MEAN CORPUSCULAR HEMOGLOBIN [1]: 25.03 pg
- MEAN CORPUSCULAR HEMOGLOBIN CONCENTRATION [1]: 40.1 G/DL
- MEAN CORPUSCULAR VOLUME [1]: 62.43 fL
- MONOCYTE [1]: 0.33%
- NEUTROPHIL [1]: 6.33%
- NUCLEATED RED BLOOD CELLS [1]: 0 /100WBC
- PLATELET COUNT [1]: 1124.67 x10E3/uL
- ALANINE AMINOTRANSFERASE [1]: 58.33 u/L
- ALBUMIN [1]: 4.43 G/DL
- ALKALINE PHOSPHATASE [1]: 402 u/L
- ASPARTATE AMINOTRANSFERASE [1]: 81.33 u/L
- BLOOD UREA NITROGEN [1]: 15.67 mg/dL
- CARBON DIOXIDE [1]: 31.67 mmol/L
- CHLORIDE [1]: 101.33 MEQ/L
- CHOLESTEROL [1]: 75 mg/dL
- CREATINE PHOSPHOKINASE [1]: 241.33 u/L
- CREATININE [1]: 0.18 mg/dL
- GLUCOSE [1]: 154 mg/dL
- LACTATE DEHYDROGENASE [1]: 123.67 u/L
- LIPASE [1]: 10 u/L
- PHOSPHORUS [1]: 10.53 mg/dL
- POTASSIUM [1]: 6.31 MEQ/L
- SODIUM [1]: 143.8 MEQ/L
- TOTAL BILIRUBIN [1]: 0.2 mg/dL
- TOTAL PROTEIN [1]: 6.23 G/DL
- URIC ACID [1]: 1.13 mg/dL
- ABSOLUTE BASOPHIL [2]: 0 CELLS/uL
- ABSOLUTE EOSINOPHIL [2]: 0 CELLS/uL
- ABSOLUTE LYMPHOCYTE [2]: 11733.33 CELLS/uL
- ABSOLUTE MONOCYTE [2]: 88 CELLS/uL
- ABSOLUTE SEGMENTED NEUTROPHIL [2]: 778.67 CELLS/uL
- BASOPHIL [2]: 0%
- EOSINOPHIL [2]: 0%
- ERYTHROCYTE COUNT [2]: 5.59 x10E6/uL
- HEMATOCRIT [2]: 36.03%
- HEMOGLOBIN [2]: 14.23 G/DL
- LEUKOCYTE COUNT [2]: 12.6 x10E3/uL
- LYMPHOCYTE [2]: 92.67%
- MEAN CORPUSCULAR HEMOGLOBIN [2]: 25.47 pg
- MEAN CORPUSCULAR HEMOGLOBIN CONCENTRATION [2]: 39.6 G/DL
- MEAN CORPUSCULAR VOLUME [2]: 64.33 fL
- MONOCYTE [2]: 0.67%
- NEUTROPHIL [2]: 6.67%
- NUCLEATED RED BLOOD CELLS [2]: 0.33 /100WBC
- PLATELET COUNT [2]: 1148 x10E3/uL
- ALANINE AMINOTRANSFERASE [2]: 60.33 u/L
- ALBUMIN [2]: 4.2 G/DL
- ALKALINE PHOSPHATASE [2]: 398.33 u/L
- ASPARTATE AMINOTRANSFERASE [2]: 110 u/L
- BLOOD UREA NITROGEN [2]: 16.67 mg/dL
- CARBON DIOXIDE [2]: 28 mmol/L
- CHLORIDE [2]: 102.67 MEQ/L
- CHOLESTEROL [2]: 61 mg/dL
- CREATINE PHOSPHOKINASE [2]: 802 u/L
- CREATININE [2]: 0.14 mg/dL
- GLUCOSE [2]: 165.67 mg/dL
- LACTATE DEHYDROGENASE [2]: 190 u/L
- LIPASE [2]: 10.33 u/L
- PHOSPHORUS [2]: 10.87 mg/dL
- POTASSIUM [2]: 5.99 MEQ/L
- SODIUM [2]: 143.87 MEQ/L
- TOTAL BILIRUBIN [2]: 0.1 mg/dL
- TOTAL PROTEIN [2]: 5.73 G/DL
- URIC ACID [2]: 1.47 mg/dL
- ABSOLUTE BASOPHIL [3]: 0 CELLS/uL
- ABSOLUTE EOSINOPHIL [3]: 80.67 CELLS/uL
- ABSOLUTE LYMPHOCYTE [3]: 11006.67 CELLS/uL
- ABSOLUTE MONOCYTE [3]: 128 CELLS/uL
- ABSOLUTE SEGMENTED NEUTROPHIL [3]: 1118 CELLS/uL
- BASOPHIL [3]: 0%
- EOSINOPHIL [3]: 0.67%
- ERYTHROCYTE COUNT [3]: 5.89 x10E6/uL
- HEMATOCRIT [3]: 36.97%
- HEMOGLOBIN [3]: 14.8 G/DL
- LEUKOCYTE COUNT [3]: 12.33 x10E3/uL
- LYMPHOCYTE [3]: 89.33%
- MEAN CORPUSCULAR HEMOGLOBIN [3]: 25.13 pg
- MEAN CORPUSCULAR HEMOGLOBIN CONCENTRATION [3]: 40.07 G/DL
- MEAN CORPUSCULAR VOLUME [3]: 62.73 fL
- MONOCYTE [3]: 1%
- NEUTROPHIL [3]: 9%
- NUCLEATED RED BLOOD CELLS [3]: 0 /100WBC
- PLATELET COUNT [3]: 1082.67 x10E3/uL
- ALANINE AMINOTRANSFERASE [3]: 74 u/L
- ALBUMIN [3]: 4.47 G/DL
- ALKALINE PHOSPHATASE [3]: 390 u/L
- ASPARTATE AMINOTRANSFERASE [3]: 96.33 u/L
- BLOOD UREA NITROGEN [3]: 19 mg/dL
- CARBON DIOXIDE [3]: 28.67 mmol/L
- CHLORIDE [3]: 101.33 MEQ/L
- CHOLESTEROL [3]: 72 mg/dL
- CREATINE PHOSPHOKINASE [3]: 380.67 u/L
- CREATININE [3]: 0.18 mg/dL
- GLUCOSE [3]: 132.33 mg/dL
- LACTATE DEHYDROGENASE [3]: 150.33 u/L
- LIPASE [3]: 8 u/L
- PHOSPHORUS [3]: 11.9 mg/dL
- POTASSIUM [3]: 5.72 MEQ/L
- SODIUM [3]: 145.67 MEQ/L
- TOTAL BILIRUBIN [3]: 0.23 mg/dL
- TOTAL PROTEIN [3]: 6.3 G/DL
- URIC ACID [3]: 1.5 mg/dL
